The text below walks through data of US12629355B2, “Drug inhibitor against migration and invasion of cancer cells and methods of treating against metastasis of cancer cells” (HOWARD UNIVERSITY, priority 2019, dated 2026).

Common to all, as to assay type: cell-based
One experiment concerns N-cadherin. Put plainly: Protein expression of EMT marker N-cadherin, western blot (FIG. 8). Conditions: U251 cells, serum starved 24 h, with or without TGFb, 6 days. The text has this:
The inhibition of EMT marker by a representative compound (SD 29-14) in comparison to other compounds (SD 29, and SD 29-12). A large family of cadherin molecules are expressed in a cancer cell-type specific manner and among them, N-cadherin is reported to be expressed in mesenchymal cells (e.g., Li and Feng, 2011; Alizadeh et al., 2014). […] Up-regulation of N-cadherin reduces cancer cell adhesion ability to epithelial cells, increases adhesion to stromal cells, and leads to subsequent invasion of tumor cells into stroma (Guan 2015). N-cadherin promotes cell migration and metastasis regardless of the expression and function of E-cadherin (Hazan et al., 2000). […] The N-cadherin expression correlates with RACK1 expression (lower panel). The coomassie stained gel is used as the loading control.
As to FIG. 8, U251 cells starved (no serum) for 24 h and then treated with the indicated compounds with or without the TGFb and again replenished with the compounds and TGFb after 3 days. After allowing to grow for 6 days, the cells were washed three times in PBS. […] After overnight incubation, the membrane was washed 3× in PBST and then incubated with a horseradish peroxidase-coupled secondary antibody for an hour at room temperature and the bands were detected with enhanced chemiluminescence (Pierce, Rockford, IL, USA), according to standard methods.
Background: A western blot detects proteins with antibodies after separation by electrophoresis.

For experiment [1], the system named is U251 cells. Put plainly: Wound migration assay (FIG. 9). To be noted: TGF, 0 h and 14 h after wounding. From the text:
During tumorigenesis, the epithelial-mesenchymal transition (EMT) plays a crucial role in migration and invasion of various cancers. EMT plays an essential role in tumor invasiveness and metastasis in cancer progression. Invasiveness (metastasis) of cancers is associated with a critical physiological process in which epithelial cells transition to mesenchymal transition or differentiation (EMT). Epithelial cells are not regarded as motile. However, in EMT, epithelial cells lose their epithelial characteristics, including their polarity (apical-basal polarity) and specialized cell-cell junctions, to acquire motility (migratory ability) behavior to become invasive mesenchymal cells, (e.g., Qu et al., Int. J. Clin. Exp. Med., 10 (6): 9019-9028 (2017); Xu et al., Cell Res. 19:156-172 (2009)). The motile mesenchymal cells can move (migrate) into surrounding tissue, even remote tissue. […] A wound was created by sliding a tip of a plastic pipette on the surface of almost 100 percent confluent cells and the size of the wound was measured at 0 h and after 14 h of wound creation. […]
In FIG. 10 and FIG. 11, U251 cells were plated in six-well plates and were allowed to reach about 90%-100% density. […] The size of wound was measured under a microscope at 0 and 14 h after wounding.

For experiment [2], the system named is U251 cells. As to the kind of experiment: Migration through Matrigel, cell shape differentiation (FIG. 16-19). On the procedure: Within 24 h of the placement of the cells on the matrigel, the cells were able to migrate through the matrigel and were captured on the glass coverslip beneath the matrigel layer.
The cells are labeled with an antibody (pY397-FAK) and detected with a rabbit-TRITC secondary antibody. The antibody staining allowed to visualize the cells clearly but the autofluorescence of the Matrigel made it hard to pinpoint the precise localization of the pY397-FAK protein.
As to FIG. 19, and related methods, freshly harvested 10^5 cells in MEM no serum media+/−drugs (500 μl) placed on coverslip covered with 200 μl of 1:12 matrigel diluted with MEM serum free media in a 24 well plate. After 24 h, the matrigel was carefully removed by tilting wells and drawing from the tilted side of the wells and washing thoroughly with PBS to remove the matrigel completely (all crumbs removed as their auto fluorescence makes background during imaging) and then were fixed 10 minutes with 4% paraformaldehyde. Washed 2× with PBS; use 5% Urea to treat the cells at 95 C for 10 minutes, wash 2×PBS; permeabilize with 0.5% saponin in PBS; block cells with 3% BSA in PBST for 30 min; Overnight Primary antibody (ThermoFisher Cat #70025-pFAK397 rabbit at 1:250) in 1% BSA in PBST at 4 C, secondary (Rabbit-TRITC) also 1% BSA in PBST for one hour (1:1000).

Experiment [3] concerns U251 cells. Put plainly: F-actin foci and pY397-FAK organization, immunofluorescence (FIG. 20). Conditions: 96 h, 2 ng/ml TGF-beta1. The text has this: Cell cytoskeleton plays a significant role during the migration and invasion of cancer cells. Changes in the cytoskeleton accompanies the cell shape changes and which subsequently changes the dynamic actin polymerization and depolymerization process. The attachment of cells to the substrate is integrin dependent and as such it was postulated that the RACK1 dependent migration will also regulate the cytoskeleton changes. In this regard, F-actin foci helps stress fiber based directional filipodia development. To visualize F-actin, we used […] that labels the F-actins. FAK located at focal contact which is actin based anchoring junction that links the cells with the ECM and mostly used by motile cells like the metastatic cancer cells. FAK is known as the key regulator of the F-actin dynamics (Li et al., 2013). (Li S Y, et al., Focal adhesion kinase is a regulator of F-actin dynamics: New insights from studies in the testis, Spermatogenesis, 3 (3): e25385 (2013).
The presence of pY397-FAK can be seen in a linear organized way within the migratory structures but such organized presence of the pY397-FAK was not seen in the presence of the representative compound (SD29-14).
As to FIG. 20, and methods, U251 cells were grown on glass coverslip for 96 h in the presence or absence of SD29-14 containing MEM media with 2 ng/ml TGF-beta1 growth factor. […]

Take `Nn1c(S)nnc1-c1cc(Cl)cc(Cl)c1` [SD 29-14]: in the experiment on N-cadherin, the N-cadherin expression entry is listed as “down-regulated N-cadherin expression”. In the experiment with U251 cells [1], the “cell migration into wound” value is “the cells failed to migrate to cover the clear area”. Also, the “filipodia, invadopodia, lamellipodia structures and cell-cell adhesion during invasion through matrigel” value is “those structures where inhibited and the cells mostly maintained their cell-cell adhesion” in the experiment with U251 cells [2] (10 μM, 24 h (FIG. 17)); “those structures where inhibited and the cells mostly maintained their cell-cell adhesion” in the experiment on U251 cells [2] (100 μM, 24 h (FIG. 18)). The “number and intensity of F-actin foci” value in the experiment with U251 cells [3] is “reduced the number and intensity of the F-actin foci”.
